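Step 1: Grow cells in 96-well plates. Step 2: Expose to compound for 48 hours at 5 concentrations. Step 3: Interpolate endpoints linearly; if unreached, use highest concentration. The concentration for 50% growth inhibition is given as GI50.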 Activity calls are given as the source filed them. Cut-off read from the data, not from the text of the source: active = GI50 up to about 1.1 µM and inactive = higher.
How the values were obtained:
Assay in all cases: growth of human tumour cells (NCI), 48 h
SF-295 = tested on: SF-295
UACC-257 = tested on: UACC-257
OVCAR-3 = tested on: OVCAR-3
OVCAR-8 = tested on: OVCAR-8
SR = tested on: SR
UO-31 = tested on: UO-31
MOLT-4 = tested on: MOLT-4
K562 = tested on: K562
KM12 = tested on: KM12
HOP-62 = tested on: HOP-62
NCI/ADR-RES = tested on: NCI/ADR-RES
MDA-MB-435 = tested on: MDA-MB-435
HT-29 = tested on: HT-29
SNB-19 = tested on: SNB-19
RPMI-8226 = tested on: RPMI-8226
EKVX = tested on: EKVX
SF-539 = tested on: SF-539
NCI-H460 = tested on: NCI-H460
HCC 2998 = tested on: HCC 2998

Measured: GI50

C=CCC(NCc1ccccc1)[C@H](OCc1ccccc1)[C@@H]1COC(C)(C)O1 (stereo not given in full)
inactive: SF-295 27.8 µM | UACC-257 22.9 µM | OVCAR-3 44.9 µM | OVCAR-8 35.2 µM | SR 21.1 µM | UO-31 22.9 µM | MOLT-4 23.7 µM | K562 23.7 µM | KM12 29.8 µM | HOP-62 55.1 µM | NCI/ADR-RES 46.8 µM | MDA-MB-435 36.1 µM | HT-29 11.7 µM | SNB-19 72.8 µM | RPMI-8226 18.5 µM | EKVX 32.5 µM

CCOC(=O)c1cc(-c2cc(OC)c(OC)c([N+](=O)[O-])c2)c([N+](=O)[O-])n1C
inactive: SF-295 3.42 µM | UACC-257 3.02 µM | OVCAR-3 7.67 µM | SF-539 8.32 µM | NCI-H460 3.9 µM | OVCAR-8 > 10 µM | SR 4.81 µM | UO-31 > 10 µM | MOLT-4 3.5 µM | K562 2.83 µM | KM12 4 µM | NCI/ADR-RES 3.94 µM | MDA-MB-435 2.04 µM | HT-29 3.18 µM | SNB-19 > 10 µM | HCC 2998 3.26 µM | EKVX > 10 µM

CCCC1C(=O)Nc2cccc3ncn(c23)C1=O (stereo not given)
inactive: SF-295 > 100 µM | UACC-257 > 100 µM | OVCAR-3 > 100 µM | SF-539 > 100 µM | NCI-H460 > 100 µM | OVCAR-8 > 100 µM | SR > 100 µM | UO-31 > 100 µM | MOLT-4 > 100 µM | K562 > 100 µM | KM12 > 100 µM | HOP-62 > 100 µM | NCI/ADR-RES > 100 µM | MDA-MB-435 > 100 µM | HT-29 > 100 µM | SNB-19 > 100 µM | RPMI-8226 > 100 µM | EKVX > 100 µM

OC1(c2ccccc2)CC2CCC(C1)N2CCCC1(c2ccc(F)cc2)OCCO1 (stereo not given)
inactive: SF-295 3.26 µM | UACC-257 28.1 µM | OVCAR-3 > 100 µM | SF-539 > 100 µM | OVCAR-8 16.3 µM | SR 27.3 µM | UO-31 54.3 µM | MOLT-4 47.2 µM | K562 > 100 µM | HOP-62 > 100 µM | NCI/ADR-RES 15.6 µM | MDA-MB-435 > 100 µM | HT-29 36.5 µM | RPMI-8226 61.4 µM | EKVX > 100 µM

C[C@]12CCC(O)CC1=CC[C@@H]1[C@@H]2CC[C@]2(C)C(=O)[C@H](n3ccnc3)C[C@@H]12 (stereo not given in full)
inactive: SF-295 94.8 µM | UACC-257 40.4 µM | OVCAR-3 > 100 µM | SF-539 58.6 µM | NCI-H460 40.9 µM | OVCAR-8 37.4 µM | SR 32.4 µM | UO-31 75.9 µM | MOLT-4 17.9 µM | K562 38 µM | KM12 38.9 µM | NCI/ADR-RES 39.8 µM | MDA-MB-435 43.1 µM | HT-29 28.2 µM | SNB-19 79.1 µM | RPMI-8226 21.2 µM | EKVX > 100 µM

Cc1ncn(-c2ccccc2O)c1C
inactive: SF-295 55.5 µM | UACC-257 34.9 µM | OVCAR-3 > 100 µM | SF-539 > 100 µM | OVCAR-8 > 100 µM | SR > 100 µM | UO-31 > 100 µM | MOLT-4 > 100 µM | K562 > 100 µM | KM12 > 100 µM | HOP-62 > 100 µM | NCI/ADR-RES > 100 µM | MDA-MB-435 > 100 µM | HT-29 > 100 µM | SNB-19 > 100 µM | RPMI-8226 > 100 µM | EKVX > 100 µM

From ChEMBL document CHEMBL1201862, “PubChem BioAssay data set” (2004)
